From patent US20240116867A1, “ALKYL […] AMMONIUM T[…] THEIR […] USES” (CAAMTECH, INC., priority 2019, published 2024)
Like-named read-outs stand apart in the source and are kept apart here.

Key:
5-HT1A [1] = molecular target: T1, 5-HT1A (Homo sapiens, UniProt P08908); test: Radioligand binding, 5-HT1A ([3H] 8-OH-DPAT), membrane homogenates of HEK-293 cells; conditions: Table 5
T1 construct: host or cells: HEK-293
T1 sequence (P08908 1-422): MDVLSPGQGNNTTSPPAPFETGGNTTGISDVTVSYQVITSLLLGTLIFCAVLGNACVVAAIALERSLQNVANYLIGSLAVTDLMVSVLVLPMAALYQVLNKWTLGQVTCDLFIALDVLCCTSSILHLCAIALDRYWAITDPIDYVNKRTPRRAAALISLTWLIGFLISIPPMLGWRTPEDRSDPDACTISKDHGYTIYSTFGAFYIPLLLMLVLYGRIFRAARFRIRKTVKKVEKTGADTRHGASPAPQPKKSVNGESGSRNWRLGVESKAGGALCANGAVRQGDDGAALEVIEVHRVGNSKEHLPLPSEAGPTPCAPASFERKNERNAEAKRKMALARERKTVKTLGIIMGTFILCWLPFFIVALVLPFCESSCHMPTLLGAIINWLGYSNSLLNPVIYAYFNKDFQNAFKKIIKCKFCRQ
Description: (§1) Cellular assays were performed by Eurofins CEREP SA, Celle-Lévescault, France. All receptors were separately expressed in HEK-293 cells. Cell membrane homogenates (30 μg protein) are incubated for 60 min (5-HT1A, 5-HT2A, 5-HT2B) or 120 min (5-HT3) at 22° C. with radiolabeled ligand in the absence or presence of the test compound in a buffer containing 50 mM Tris-HCl (pH 7.4), 5 mM MgCl2, 10 μM pargyline and 0.1% ascorbic acid. For 5-HT3, the buffer contained 50 mM Tris-HCl (pH 7.4), 5 mM MgCl2, and 1 mM EDTA. Binding was reported as the Ki for the inhibition of binding of well-characterized orthosteric ligands. The ligands used for each receptor were: • 5-HT1A: [^3H] 8-OH-DPAT • 5-HT2A: [^125] […]
(§2) Nonspecific binding was determined in the presence of 1 μM unlabeled ligand listed above. […] The filters were dried then counted for radioactivity in a scintillation counter (Topcount, Packard) using a scintillation cocktail (Microscint 0, Packard). The results are expressed as a percent inhibition of the control radioligand specific binding.
(§3) The IC50 values and Hill coefficients (nH) were determined by non-linear regression analysis of the competition curves generated with mean replicate values using Hill equation curve fitting Y=D+[(A−D)/(1+(C/C50)^nH)] where Y=specific binding, A=left asymptote of the curve, D=right asymptote of the curve, C=compound concentration, C50=IC50, and nH=slope factor. […]

5-HT2A [2] = molecular target: T2, 5-HT2A (Homo sapiens, UniProt P28223); test: Radioligand binding, 5-HT2A ([125] (±)DOI), membrane homogenates of HEK-293 cells; conditions: Table 5
T2 construct: host or cells: HEK-293
Description: as §1, §2, §3

5-HT3 [3] = molecular target: T3, 5-HT3 (Homo sapiens, UniProt P46098); test: Radioligand binding, 5-HT3 ([3H] BRL 43694), membrane homogenates of HEK-293 cells; conditions: Table 5
T3 construct: host or cells: HEK-293
T3 sequence (P46098 24-478): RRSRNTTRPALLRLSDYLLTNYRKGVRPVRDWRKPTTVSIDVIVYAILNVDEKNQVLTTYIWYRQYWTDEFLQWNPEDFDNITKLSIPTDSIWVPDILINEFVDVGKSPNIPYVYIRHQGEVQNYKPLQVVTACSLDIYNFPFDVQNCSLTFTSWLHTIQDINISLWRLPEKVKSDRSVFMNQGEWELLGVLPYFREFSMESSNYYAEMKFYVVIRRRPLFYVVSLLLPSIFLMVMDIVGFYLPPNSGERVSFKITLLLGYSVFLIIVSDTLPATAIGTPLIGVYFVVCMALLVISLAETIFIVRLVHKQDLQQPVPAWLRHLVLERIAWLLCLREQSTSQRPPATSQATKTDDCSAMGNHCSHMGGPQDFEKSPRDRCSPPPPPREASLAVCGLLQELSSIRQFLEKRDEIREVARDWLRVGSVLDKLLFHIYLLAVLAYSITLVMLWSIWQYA
Description: as §1, §2, §3

5-HT2B [4] = molecular target: T4, 5-HT2B (Homo sapiens, UniProt P41595); test: Radioligand binding, 5-HT2B ([125] (±)DOI), membrane homogenates of HEK-293 cells; design: host or cells: HEK-293; conditions: Table 5
Description: as §1, §2, §3

5-HT1A [5] = molecular target: T1, 5-HT1A; conditions: cited from earlier work
5-HT2A [6] = molecular target: T2, 5-HT2A; conditions: cited from earlier work
5-HT3 [7] = molecular target: T3, 5-HT3; conditions: read-out: Inhibition constants (Ki) 5-HT3; comparison values marked ‡ (Roth et al.); cited from earlier work
5-HT2B [8] = molecular target: T4, 5-HT2B; conditions: comparison values (Roth et al.); cited from earlier work
[9] = comparison values (Roth et al.)

T4 sequence (P41595 whole entry): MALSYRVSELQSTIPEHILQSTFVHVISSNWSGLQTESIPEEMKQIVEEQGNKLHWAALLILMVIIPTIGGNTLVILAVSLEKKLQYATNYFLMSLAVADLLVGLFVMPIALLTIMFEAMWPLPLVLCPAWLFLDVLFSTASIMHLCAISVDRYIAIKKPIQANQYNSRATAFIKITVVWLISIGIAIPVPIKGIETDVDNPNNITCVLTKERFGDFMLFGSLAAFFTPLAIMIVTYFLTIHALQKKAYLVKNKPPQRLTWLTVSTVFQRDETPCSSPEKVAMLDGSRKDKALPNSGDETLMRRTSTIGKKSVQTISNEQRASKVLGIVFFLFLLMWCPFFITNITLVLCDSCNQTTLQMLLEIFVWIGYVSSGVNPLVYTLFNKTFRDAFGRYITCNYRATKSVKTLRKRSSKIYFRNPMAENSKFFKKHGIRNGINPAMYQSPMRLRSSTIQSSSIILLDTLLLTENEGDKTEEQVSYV
T2 sequence (P28223 whole entry): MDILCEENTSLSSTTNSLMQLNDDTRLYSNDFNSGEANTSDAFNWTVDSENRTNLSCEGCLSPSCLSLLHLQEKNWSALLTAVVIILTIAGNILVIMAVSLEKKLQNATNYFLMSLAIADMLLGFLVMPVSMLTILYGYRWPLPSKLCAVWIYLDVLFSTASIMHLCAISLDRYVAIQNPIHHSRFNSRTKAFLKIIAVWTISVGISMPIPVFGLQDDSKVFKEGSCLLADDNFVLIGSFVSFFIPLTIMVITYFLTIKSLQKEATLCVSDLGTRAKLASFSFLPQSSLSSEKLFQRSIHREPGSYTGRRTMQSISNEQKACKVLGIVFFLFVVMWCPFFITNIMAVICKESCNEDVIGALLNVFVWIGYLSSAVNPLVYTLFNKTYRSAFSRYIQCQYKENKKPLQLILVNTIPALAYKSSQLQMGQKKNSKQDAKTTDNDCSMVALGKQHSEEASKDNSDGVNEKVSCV

CC(=O)Oc1cccc2[nH]cc(CC[N+](C)(C)C)c12 [Example 4-AcO-TMTI, 4-Acetoxy-N,N,N-trimethyltryptammonium Iodide]
activity at 5-HT1A (in words) (5-HT1A [1]): shows no activity | activity at 5-HT2A (in words) (5-HT2A [2]): shows no activity | activity at 5-HT3 (in words) (5-HT3 [3]): shows no activity | activity at 5-HT2B (in words) (5-HT2B [4]): shows no activity

C[N+](C)(C)CCc1c[nH]c2cccc(O)c12 [Example 4-HO-TMTI, 4-Hydroxy-N,N,N-trimethyltryptammonium Iodide]
activity at 5-HT1A (in words) (5-HT1A [1]): shows activity | activity at 5-HT2A (in words) (5-HT2A [2]): shows activity | activity at 5-HT3 (in words) (5-HT3 [3]): no activity observed | activity at 5-HT2B (in words) (5-HT2B [4]): shows activity

CN(C)CCc1c[nH]c2cccc(O)c12 [Psilocin]
activity at 5-HT1A (in words) (5-HT1A [5]; [9]): shows activity | activity at 5-HT2A (in words) (5-HT2A [6]; [9]): shows activity | Ki (5-HT3 [7]): > 10 µM | activity at 5-HT2B (in words) (5-HT2B [8]): significantly more potent than 4-HO-TMTI

CN(C)CCc1c[nH]c2cccc(OP(=O)(O)O)c12 [Psilocybin]
Ki (5-HT1A [5]; read-out: Inhibition constants (Ki) 5-HT1A, comparison values marked ‡ (Roth et al.)): > 10 µM | Ki (5-HT2A [6]; read-out: Inhibition constants (Ki) 5-HT2A, comparison values marked ‡ (Roth et al.)): > 10 µM | Ki (5-HT3 [7]): > 10 µM
